This passage reports IC50 results from US8796470B2 (AbbVie Inc., priority 2010, dated 2014).

This assay deals with T1, human Cav2.2 (Homo sapiens, UniProt Q00975).
T1 construct: IMR32 cells endogenously expressing human Cav2.2; endogenous in cells; host or cells: IMR32 cells (human neuroblastoma)
T1 sequence (Q00975 whole entry): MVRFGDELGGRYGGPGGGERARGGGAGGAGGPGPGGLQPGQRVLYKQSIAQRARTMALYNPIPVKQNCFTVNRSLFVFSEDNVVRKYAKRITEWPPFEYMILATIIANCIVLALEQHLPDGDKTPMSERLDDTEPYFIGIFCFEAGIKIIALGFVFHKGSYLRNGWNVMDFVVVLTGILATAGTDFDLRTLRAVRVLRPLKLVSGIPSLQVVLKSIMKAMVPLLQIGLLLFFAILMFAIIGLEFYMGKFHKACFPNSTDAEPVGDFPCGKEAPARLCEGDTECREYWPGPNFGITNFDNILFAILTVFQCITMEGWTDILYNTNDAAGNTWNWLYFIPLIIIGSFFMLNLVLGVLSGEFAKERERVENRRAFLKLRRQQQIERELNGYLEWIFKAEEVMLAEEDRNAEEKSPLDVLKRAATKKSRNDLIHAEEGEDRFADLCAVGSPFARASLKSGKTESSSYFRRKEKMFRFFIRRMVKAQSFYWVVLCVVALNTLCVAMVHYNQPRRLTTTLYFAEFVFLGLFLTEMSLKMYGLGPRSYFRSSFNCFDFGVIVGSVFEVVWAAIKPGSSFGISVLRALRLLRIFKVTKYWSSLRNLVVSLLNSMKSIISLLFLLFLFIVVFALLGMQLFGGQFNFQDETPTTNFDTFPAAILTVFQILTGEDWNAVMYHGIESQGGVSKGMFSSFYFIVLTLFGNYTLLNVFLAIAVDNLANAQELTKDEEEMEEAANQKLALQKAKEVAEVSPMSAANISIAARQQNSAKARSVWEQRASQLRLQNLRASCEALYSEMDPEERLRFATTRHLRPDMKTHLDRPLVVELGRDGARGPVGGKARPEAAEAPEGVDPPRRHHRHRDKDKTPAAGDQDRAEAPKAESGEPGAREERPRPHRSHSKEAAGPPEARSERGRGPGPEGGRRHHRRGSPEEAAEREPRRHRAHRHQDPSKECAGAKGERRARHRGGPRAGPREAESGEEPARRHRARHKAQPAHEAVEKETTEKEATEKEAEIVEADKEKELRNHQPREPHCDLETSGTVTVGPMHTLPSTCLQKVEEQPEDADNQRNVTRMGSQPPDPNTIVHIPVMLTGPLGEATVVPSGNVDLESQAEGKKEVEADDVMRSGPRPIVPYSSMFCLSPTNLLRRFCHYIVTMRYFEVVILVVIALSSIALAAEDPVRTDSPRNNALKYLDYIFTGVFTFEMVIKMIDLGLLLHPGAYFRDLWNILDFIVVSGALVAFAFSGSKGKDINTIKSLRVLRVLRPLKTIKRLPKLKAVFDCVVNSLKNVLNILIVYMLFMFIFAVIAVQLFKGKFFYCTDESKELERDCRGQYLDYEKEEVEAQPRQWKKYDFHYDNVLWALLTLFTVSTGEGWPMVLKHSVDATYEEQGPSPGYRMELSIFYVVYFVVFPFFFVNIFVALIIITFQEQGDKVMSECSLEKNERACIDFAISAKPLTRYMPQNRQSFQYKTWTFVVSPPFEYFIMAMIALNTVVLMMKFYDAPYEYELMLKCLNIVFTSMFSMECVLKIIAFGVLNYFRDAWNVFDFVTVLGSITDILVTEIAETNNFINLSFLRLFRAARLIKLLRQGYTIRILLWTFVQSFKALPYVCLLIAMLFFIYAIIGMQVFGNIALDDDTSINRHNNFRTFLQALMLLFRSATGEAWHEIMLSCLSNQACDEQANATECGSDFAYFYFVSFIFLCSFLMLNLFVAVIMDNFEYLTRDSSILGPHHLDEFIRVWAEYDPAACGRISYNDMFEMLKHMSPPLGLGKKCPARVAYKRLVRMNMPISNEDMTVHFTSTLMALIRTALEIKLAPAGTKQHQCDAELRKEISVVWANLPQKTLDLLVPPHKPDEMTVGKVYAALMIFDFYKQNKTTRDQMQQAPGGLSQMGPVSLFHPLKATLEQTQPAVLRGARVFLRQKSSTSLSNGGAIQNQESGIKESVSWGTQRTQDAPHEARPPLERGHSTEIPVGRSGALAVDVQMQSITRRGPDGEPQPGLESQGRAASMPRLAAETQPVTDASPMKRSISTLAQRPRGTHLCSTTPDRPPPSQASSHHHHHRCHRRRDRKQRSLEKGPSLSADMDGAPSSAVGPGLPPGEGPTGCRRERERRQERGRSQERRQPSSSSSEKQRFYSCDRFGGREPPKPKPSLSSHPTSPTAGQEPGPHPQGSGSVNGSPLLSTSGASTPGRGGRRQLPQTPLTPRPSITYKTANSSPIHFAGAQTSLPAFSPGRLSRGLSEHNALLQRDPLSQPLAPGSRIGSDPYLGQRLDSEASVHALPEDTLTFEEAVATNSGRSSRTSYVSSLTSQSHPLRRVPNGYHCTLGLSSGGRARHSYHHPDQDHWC
T1 sequence (P54289 25-956 partner limits assumed): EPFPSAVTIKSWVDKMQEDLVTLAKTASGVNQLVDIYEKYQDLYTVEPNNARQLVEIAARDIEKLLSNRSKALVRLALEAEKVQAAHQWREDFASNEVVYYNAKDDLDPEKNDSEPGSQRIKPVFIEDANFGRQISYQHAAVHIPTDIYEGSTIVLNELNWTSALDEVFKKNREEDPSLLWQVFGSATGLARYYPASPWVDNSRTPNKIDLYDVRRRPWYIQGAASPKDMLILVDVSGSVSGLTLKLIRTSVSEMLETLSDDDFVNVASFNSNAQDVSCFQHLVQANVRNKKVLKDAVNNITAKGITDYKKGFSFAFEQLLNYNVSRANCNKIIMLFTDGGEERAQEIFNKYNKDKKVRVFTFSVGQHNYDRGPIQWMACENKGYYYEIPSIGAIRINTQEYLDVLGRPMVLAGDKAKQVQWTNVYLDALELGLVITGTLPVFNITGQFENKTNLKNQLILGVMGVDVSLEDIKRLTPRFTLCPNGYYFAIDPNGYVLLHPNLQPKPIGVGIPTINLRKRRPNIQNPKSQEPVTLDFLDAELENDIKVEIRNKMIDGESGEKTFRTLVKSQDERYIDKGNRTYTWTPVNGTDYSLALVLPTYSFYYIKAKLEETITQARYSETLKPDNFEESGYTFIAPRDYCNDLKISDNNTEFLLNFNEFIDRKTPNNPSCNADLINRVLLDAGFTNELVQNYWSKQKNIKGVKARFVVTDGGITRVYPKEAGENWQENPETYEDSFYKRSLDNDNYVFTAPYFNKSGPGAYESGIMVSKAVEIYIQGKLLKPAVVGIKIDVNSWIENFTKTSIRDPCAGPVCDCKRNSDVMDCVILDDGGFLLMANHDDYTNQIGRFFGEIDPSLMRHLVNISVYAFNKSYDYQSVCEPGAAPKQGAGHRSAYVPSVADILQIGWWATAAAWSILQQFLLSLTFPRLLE
T1 sequence (P54289 957-1103 partner limits assumed): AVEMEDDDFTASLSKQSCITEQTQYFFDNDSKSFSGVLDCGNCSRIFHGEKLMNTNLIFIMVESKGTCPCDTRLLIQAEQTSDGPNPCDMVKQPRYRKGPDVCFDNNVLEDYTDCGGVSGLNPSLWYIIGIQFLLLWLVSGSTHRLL
T1 sequence (P54284 whole entry partner): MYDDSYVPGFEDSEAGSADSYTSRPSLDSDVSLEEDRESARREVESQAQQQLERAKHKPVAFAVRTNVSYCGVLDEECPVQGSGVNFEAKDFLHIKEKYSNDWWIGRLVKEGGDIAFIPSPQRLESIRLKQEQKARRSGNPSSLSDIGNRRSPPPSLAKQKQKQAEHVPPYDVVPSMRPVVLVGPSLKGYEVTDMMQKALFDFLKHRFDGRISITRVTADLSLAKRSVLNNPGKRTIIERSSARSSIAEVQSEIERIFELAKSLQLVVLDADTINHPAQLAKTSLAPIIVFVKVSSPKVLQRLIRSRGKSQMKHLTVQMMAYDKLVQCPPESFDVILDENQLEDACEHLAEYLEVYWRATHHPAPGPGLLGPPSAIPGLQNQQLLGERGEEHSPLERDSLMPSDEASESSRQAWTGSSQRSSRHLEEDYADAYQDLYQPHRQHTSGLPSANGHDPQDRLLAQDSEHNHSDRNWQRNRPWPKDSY
Nature of the assay: Assessment of calcium channel activity using FLIPR (Ca2+ influx in IMR32 cells). It is filed as cell-based. As to conditions: IMR32 cells endogenously expressing human Cav2.2, Calcium 4 dye, 60 minute pre-incubation, 2 μM nifedipine, depolarized with 80 mM KCl, 5 mM CaCl2. As to the method: (i) In Vitro Methods—Assessment of Calcium Channel Activity Using FLIPR:
IMR32 cells endogenously expressing human Cav2.2 were assayed for Ca^2+ influx using a no-wash calcium indicator dye (Calcium 4 dye: Molecular Probes) and FLIPR technology (Lubin, M. L.; Reitz, T. L.; Todd, M. J.; Flores, C. M.; Qin, N.; Xin, H. Assay and Drug Development Technologies 2006, 4(6), 689-694.). The IMR32 cells were maintained in MEM media containing 10% (v/v) FBS, 1% (v/v) antibiotic/antimitotic, 1% (v/v) sodium pyruvate and 1% (v/v) MEM NEAA. Following dissociation in 0.05% (v/v) trypsin/EDTA, cells were seeded into black 1×96-well plates (Corning Cellbind) at a density of 1−1.2×10^5 cells/well and incubated in the maintenance media above for 48 hours at 37° C. Immediately prior to performing the assay the media was removed and cells were loaded for 1.5 hours with 1×Calcium 4 dye prepared in HBSS (137 mM NaCl, 5.4 mM KCl, 0.25 mM Na2HPO4, 0.44 mM KH2PO4, 1.3 mM CaCl2, 1 mM MgSO4, 4.2 mM NaHCO3) containing HEPES pH 7.4 at room temperature. After dye loading and a subsequent 60 minute pre-incubation with compounds (full log dilutions from 10 μM to 0.1 nM) in the presence of 1.3 mM CaCl2 and 2 μM nifedipine to block endogenous L-type channels, the external Ca^2+ concentration was increased to 5 mM CaCl2 and the cells concomitantly depolarized with 80 mM KCl to assay channel activity. To determine the IC50 values, the percent inhibition of the compound at each concentration was determined relative to the activity in the absence of inhibitor, and data was fitted using non-linear regression sigmoidal dose response curve analysis with GraphPad Prism®.
As to `O[C@]1(c2ccccc2)CC[C@@H]2CN(Cc3ccccc3)C[C@@H]21` [Example 47, (3aR,4R,6aS)-2-benzyl-4-phenyloctahydrocyclopenta[c]pyrrol-4-ol], the IC50 came out at 8.83 µM.
Then `O[C@H]1CC[C@@H]2CN(c3cccc(C(F)(F)F)n3)C[C@@H]21` [Example 31, (3aR,4S,6aS)-2-[6-(trifluoromethyl)pyridin-2-yl]octahydrocyclopenta[c]pyrrol-4-ol], with 9.62 µM; and `CO[C@H]1CC[C@@H]2CN(c3cccc(C(F)(F)F)n3)C[C@@H]21` [Example 40, (3aR,4S,6aS)-4-methoxy-2-[6-(trifluoromethyl)pyridin-2-yl]octahydrocyclopenta[c]pyrrole], with 3.37 µM.
Take `CC(=O)N[C@]1(C)CC[C@@H]2CN(Cc3ccccc3)C[C@@H]21` [Example 4, N-[(3aR,4R,6aS)-2-benzyl-4-methyloctahydrocyclopenta[c]pyrrol-4-yl]acetamide]: the IC50 is above 30 µM.
Take `CCO[C@H]1CC[C@@H]2CN(c3cccc(C(F)(F)F)n3)C[C@@H]21` [Example 41, (3aR,4S,6aS)-4-ethoxy-2-[6-(trifluoromethyl)pyridin-2-yl]octahydrocyclopenta[c]pyrrole]: the IC50 was determined as 3.32 µM.
Then `C[C@]1(NC(=O)[C@@H]2C[C@@H](F)CN2)CC[C@@H]2CN(c3cccc(C(F)(F)F)n3)C[C@@H]21` [Example 70, (4R)-4-fluoro-N-{(3aR,4S,6aS)-4-methyl-2-[6-(trifluoromethyl)pyridin-2-yl]octahydrocyclopenta[c]pyrrol-4-yl}-L-prolinamide], with 3.09 µM; and `C=C1CC[C@@H]2CN(c3cccc(C(F)(F)F)n3)C[C@H]12` [Example 49, (3aS,6aS)-4-methylene-2-[6-(trifluoromethyl)pyridin-2-yl]octahydrocyclopenta[c]pyrrole], with 24.9 µM.
Then `CC(c1cccc(F)c1)[C@@]1(O)CC[C@@H]2CN(c3cccc(C(F)(F)F)n3)C[C@@H]21` (stereo partly drawn) [Example 38, (3aR,4S,6aS)-4-[1-(3-fluorophenyl)ethyl]-2-[6-(trifluoromethyl)pyridin-2-yl]octahydrocyclopenta[c]pyrrol-4-ol], with 6.1 µM; and `O=C(Nc1cccc(F)c1)[C@H]1CC[C@@H]2CN(c3cccc(C(F)(F)F)n3)C[C@@H]21` [Example 56, (3aS,4S,6aS)—N-(3-fluorophenyl)-2-[6-(trifluoromethyl)pyridin-2-yl]octahydrocyclopenta[c]pyrrole-4-carboxamide], with 8.9 µM.
To `FC(F)(F)c1cccc(N2C[C@H]3CC[C@H](n4cc(Cl)cn4)[C@H]3C2)n1` [Example 52, (3aR,4S,6aS)-4-(4-chloro-1H-pyrazol-1-yl)-2-[6-(trifluoromethyl)pyridin-2-yl]octahydrocyclopenta[c]pyrrole] belongs 7.39 µM; to `C[C@]1(NCc2ccccc2)CC[C@@H]2CN(c3cccc(C(F)(F)F)n3)C[C@@H]21` [Example 20, (3aR,4S,6aS)—N-benzyl-4-methyl-2-[6-(trifluoromethyl)pyridin-2-yl]octahydrocyclopenta[c]pyrrol-4-amine], 0.38 µM; to `CCN[C@@]1(C)CC[C@@H]2CN(c3cccc(C(F)(F)F)n3)C[C@@H]21` [Example 23, (3aR,4S,6aS)—N-ethyl-4-methyl-2-[6-(trifluoromethyl)pyridin-2-yl]octahydrocyclopenta[c]pyrrol-4-amine], 1.76 µM.
Consider “5-methyl-1-{(3aR,4S,6aS)-2-[6-(trifluoromethyl)pyridin-2-yl]octahydrocyclopenta[c]pyrrol-4-yl}-1H-benzimidazole and 6-methyl-1-{(3aR,4S,6aS)-2-[6-(trifluoromethyl)pyridin-2-yl]octahydrocyclopenta[c]pyrrol-4-yl}-1H-benzimidazole [Example 59]”, for which the IC50 was determined as 2.8 µM.
Turning to `C[C@]1(NC(=O)c2cccc(F)c2)CC[C@@H]2CN(c3cccc(C(F)(F)F)n3)C[C@@H]21` [Example 19, 3-fluoro-N-{(3aR,4S,6aS)-4-methyl-2-[6-(trifluoromethyl)pyridin-2-yl]octahydrocyclopenta[c]pyrrol-4-yl}benzamide], the IC50 was determined as 1.82 µM.
Then `O=C(Nc1cccc(F)c1)[C@H]1CC[C@@H]2CNC[C@@H]21` [Example 55, (3aS,4S,6aS)—N-(3-fluorophenyl)octahydrocyclopenta[c]pyrrole-4-carboxamide], with above 30 µM.
To `C[C@@]1(O)CC[C@@H]2CN(c3cccc(C(F)(F)F)n3)C[C@@H]21` [Example 33, (3aR,4R,6aS)-4-methyl-2-[6-(trifluoromethyl)pyridin-2-yl]octahydrocyclopenta[c]pyrrol-4-ol] belongs 8.34 µM; to `CC(C)(C)O[C@H]1CC[C@@H]2CN(c3cccc(C(F)(F)F)n3)C[C@@H]21` [Example 43, (3aR,4S,6aS)-4-tert-butoxy-2-[6-(trifluoromethyl)pyridin-2-yl]octahydrocyclopenta[c]pyrrole], 2.54 µM.
Then `Fc1cccc(CCO[C@H]2CC[C@@H]3CN(c4cccc(C(F)(F)F)n4)C[C@@H]32)c1` [Example 46], with 8.41 µM; and `C[C@@]1(NC(=O)c2cccc(F)c2)CC[C@@H]2CN(c3cccc(C(F)(F)F)n3)C[C@@H]21` [Example 18, 3-fluoro-N-{(3aR,4R,6aS)-4-methyl-2-[6-(trifluoromethyl)pyridin-2-yl]octahydrocyclopenta[c]pyrrol-4-yl}benzamide], with 1.5 µM.
For `FC(F)(F)c1cccc(N2C[C@H]3CC[C@H](n4cccn4)[C@H]3C2)n1` [Example 51, (3aR,4S,6aS)-4-(1H-pyrazol-1-yl)-2-[6-(trifluoromethyl)pyridin-2-yl]octahydrocyclopenta[c]pyrrole], the IC50 was 1.39 µM.
Turning to `CC(=O)N[C@@]1(C)CC[C@@H]2CN(Cc3ccccc3)C[C@@H]21` [Example 5, N-[(3aR,4S,6aS)-2-benzyl-4-methyloctahydrocyclopenta[c]pyrrol-4-yl]acetamide], the IC50 is above 30 µM.
As to `C[C@]1(NC(=O)c2ccccc2)CC[C@@H]2CN(c3cccc(C(F)(F)F)n3)C[C@@H]21` [Example 15, N-{(3aR,4S,6aS)-4-methyl-2-[6-(trifluoromethyl)pyridin-2-yl]octahydrocyclopenta[c]pyrrol-4-yl}benzamide], the IC50 came to 2.52 µM.
Turning to `C[C@]1(NCc2cccc(F)c2)CC[C@@H]2CN(c3cccc(C(F)(F)F)n3)C[C@@H]21` [Example 25, (3aR,4S,6aS)—N-(3-fluorobenzyl)-4-methyl-2-[6-(trifluoromethyl)pyridin-2-yl]octahydrocyclopenta[c]pyrrol-4-amine], the IC50 was 0.18 µM.
Then `Fc1cccc(CO[C@H]2CC[C@@H]3CN(c4cccc(C(F)(F)F)n4)C[C@@H]32)c1` [Example 45, (3aR,4S,6aS)-4-[(3-fluorobenzyl)oxy]-2-[6-(trifluoromethyl)pyridin-2-yl]octahydrocyclopenta[c]pyrrole], with 8.05 µM.
As to `O[C@H]1[C@H]2CN(c3cccc(C(F)(F)F)n3)C[C@H]2C[C@H]1n1ccnc1` [Example 68, (3aR,4S,5R,6aS)-5-(1H-imidazol-1-yl)-2-[6-(trifluoromethyl)pyridin-2-yl]octahydrocyclopenta[c]pyrrol-4-ol], the IC50 amounted to 10.8 µM.
To `CC(=O)N[C@]1(C)CC[C@@H]2CN(c3cccc(C(F)(F)F)n3)C[C@@H]21` [Example 16, N-{(3aR,4R,6aS)-4-methyl-2-[6-(trifluoromethyl)pyridin-2-yl]octahydrocyclopenta[c]pyrrol-4-yl}acetamide] belongs 6.44 µM.

By IC50 is commonly meant the concentration needed to halve the response being measured.
